Calls of active or inactive are those of the source. No cut-off for these calls is given here.
Tests used:
[1] = Displacement of [125I]-angiotensin-2 from AT1 receptor in Sprague-Dawley rat vascular smooth muscle cells after 150 mins by gamma counting method
[2] = system: Rattus norvegicus; test: Antihypertensive activity in rat spontaneous hypertensive model assessed as decrease in maximal mean blood pressure at 5 to 10 mg/kg, po qd measured up to 24 hrs; assay type: functional, organism-based
[3] = system: Rattus norvegicus; test: Antihypertensive activity in rat spontaneous hypertensive model assessed as decrease in maximal mean blood pressure at 10 mg/kg, po qd measured up to 24 hrs; assay type: functional
[4] = Toxicity in rat spontaneous hypertensive model assessed as effect on heart rate at 5 to 10 mg/kg, po qd measured up to 24 hrs; assay type: organism-based; details: in vivo

Row | SMILES | IC50 [1] | Ki [1] | Activity [2] | Activity [3] | Activity [4]
1 | CCCCc1nc2c(C)cc(-c3nc4c(C)cccc4o3)cc2n1Cc1ccc2c(ccn2-c2ccccc2C(=O)O)c1 | 10.7 nM | 7.7 nM | Active |  | 
2 | CCCCc1nc(Cl)c(CO)n1Cc1ccc(-c2ccccc2-c2nnn[nH]2)cc1 [LOSARTAN] | 14.6 nM | 10.5 nM |  | 42.5 mmHg | 
3 | CCc1nc2c(C)cc(-c3nc4cccc(C)c4o3)cc2n1Cc1cccc2c1ccn2-c1ccccc1C(=O)O | 12.1 nM | 8.8 nM | Active |  | 
4 | CCCc1nc2c(C)cc(-c3nc4cccc(C)c4o3)cc2n1Cc1cccc2c1ccn2-c1ccccc1C(=O)O | 5.3 nM | 3.8 nM | Active |  | 
5 | CCc1nc2c(C)cc(-c3nc4cccc(C)c4o3)cc2n1Cc1ccc2c(ccn2-c2ccccc2C(=O)O)c1 | 13.6 nM | 9.8 nM | Active |  | 
6 | CCCc1nc2c(C)cc(-c3nc4c(C)cccc4o3)cc2n1Cc1cccc2c1ccn2-c1ccccc1C(=O)O | 4 nM | 2.9 nM | Active | 54.57 mmHg | Non-Toxic

More lines, in order of falling IC50 [1], values ahead:

Row | IC50 [1] | SMILES | Ki [1] | Activity [2] | Activity [3] | Activity [4]
7 | 12 nM | CCc1nc2c(C)cc(-c3nc4c(C)cccc4o3)cc2n1Cc1ccc2c(ccn2-c2ccccc2C(=O)O)c1 | 8.7 nM | Active |  | 
8 | 10.5 nM | CCCCc1nc2c(C)cc(-c3nc4cccc(C)c4o3)cc2n1Cc1cccc2c1ccn2-c1ccccc1C(=O)O | 7.6 nM | Active |  | 
9 | 10.3 nM | CCc1nc2c(C)cc(-c3nc4c(C)cccc4o3)cc2n1Cc1cccc2c1ccn2-c1ccccc1C(=O)O | 7.5 nM | Active |  | 
10 | 9.9 nM | CCCCc1nc2c(C)cc(-c3nc4c(C)cccc4o3)cc2n1Cc1cccc2c1ccn2-c1ccccc1C(=O)O | 7.2 nM | Active |  | 
11 | 9.7 nM | CCCCc1nc2c(C)cc(-c3nc4cccc(C)c4o3)cc2n1Cc1ccc2c(ccn2-c2ccccc2C(=O)O)c1 | 7 nM | Active |  | 
12 | 5.6 nM | CCCc1nc2c(C)cc(-c3nc4cccc(C)c4o3)cc2n1Cc1ccc2c(ccn2-c2ccccc2C(=O)O)c1 | 4 nM | Active |  | 
13 | 4.4 nM | CCCc1nc2c(C)cc(-c3nc4c(C)cccc4o3)cc2n1Cc1ccc2c(ccn2-c2ccccc2C(=O)O)c1 | 3.2 nM | Active | 41.91 mmHg | Non-Toxic
